Measured values as given in patent US10189875B2, “Anti-cancer peptide and use thereof” (ENSOL BIOSCIENCES INC., priority 2015, dated 2019).

Assays:
[1] = test system: SNU-790 thyroid cancer cells; assay: Transwell invasion assay (TGF-beta1-induced invasion of cancer cells); type: cell-based; conditions: invasion increased by 10 ng/ml TGF-beta1; peptide at 40 and 100 [1M; 2 days culture; FIG. 1
Description: Whether the invasion of cancer cells was inhibited by the peptide of Example 1 was evaluated experimentally. Specifically, in order to evaluate the effect of the peptide of Example 1 on inhibiting the invasion of cancer cells, a Transwell invasion assay was performed. Growth factor reduced Matrigel (BD Biosciences, Franklin Lakes, N.J., USA) was diluted at 1:1 with a medium [RPMI 1640 medium (Welgene Inc., Korea)] and 70 fek thereof was added to the top chamber of the Transwell insert (Corning cat#3422, Tewksbury Mass., USA), followed by a coating process for 1 hr in a CO2 incubator at 37° C. 500 fek of a medium [RPMI 1640 medium (Welgene Inc., Korea)] containing 10% fetal bovine serum (FBS, Cellgro cat#35-015-CV, USA) was added to the bottom chamber, after which the test group was added with 10 ng/ml of TGF-betal (PromoKine, Germany). The coated top chamber was mounted to the bottom chamber, and 100 ick of RPMI 1640 medium containing 0.5% FBS with 20000 SNU-790 thyroid cancer cells (Korean Cell Line Bank) was added to the top chamber. In this way, a negative control group and two test groups were prepared. […]
The test groups, the control group, and the negative control group were cultured in a CO2 incubator for 2 days at 37° C. […] Four randomly selected regions were photographed and the number of cells in these regions was counted, averaged and graphed. […]

[2] = test system: 4T1 mouse breast cancer cells; assay: Lung metastasis model with 4T1 cells, count of metastatic tumor nodules; type: in vivo, female BALB/c mice; conditions: FIG. 2; for number of tumor nodules (lung): caudal vein, three times a week for three weeks, autopsy on 21st day, vs negative control
Description: Whether the metastasis of cancer cells was inhibited by the peptide of Example 1 was evaluated experimentally. Specifically, in order to evaluate the inhibitory effect of the peptide of Example 1 on the metastasis of cancer cells, testing was performed using a lung metastasis model with 4T1 mouse breast cancer cells (ATCC CRL-2539, USA). The peptide of Example 1 was injected into the caudal vein of the tail of female BALB/c mice (SPF, SLC/Japan). The test group was divided into three groups according to the administration concentration; low concentration [40/2 g/head], middle concentration [80/2 g/head], and high concentration 1120, ug/headl. The negative control group was treated in the same manner as the test group, with the exception that the peptide of Example 1 was not administered. On the day after first administration, 4T1 cells (1.5×10^4 cells/head) were injected into the mouse tail caudal vein. After 1 hr, the peptide of Example 1 was secondarily administered. The administration of the peptide was performed three times a week (Monday, Wednesday, and Friday) for a total of three weeks ranging from the second administration day to the final administration day. The weight of the mouse was measured two times a week, and an autopsy was performed on the 21st day after the injection of cancer cells. The lung tissue was excised, stained with a Bouin's solution, and fixed, and then the number of metastatic tumor nodules was counted. Also, a group (a normal group), treated in the same manner as the test group, was prepared as a control group, with the exception that neither the peptide of Example 1 nor 4T1 cells were added. The graph of FIG. 2 is plotted with an x-axis for each group and a y-axis for the number of tumor nodules. As such, n designates the number of individuals in each group, and P designates the significance probability.

[3] = test system: 4T1 mouse breast cancer cells; assay: Survival rate in the 4T1 lung metastasis model; type: in vivo, female BALB/c mice; conditions: FIG. 3
Description: Whether the metastasis of cancer cells was inhibited by the peptide of Example 1 was evaluated experimentally. Specifically, in order to evaluate the inhibitory effect of the peptide of Example 1 on the metastasis of cancer cells, testing was performed using a lung metastasis model with 4T1 mouse breast cancer cells (ATCC CRL-2539, USA). The peptide of Example 1 was injected into the caudal vein of the tail of female BALB/c mice (SPF, SLC/Japan). The test group was divided into three groups according to the administration concentration; low concentration [40/2 g/head], middle concentration [80/2 g/head], and high concentration 1120, ug/headl. The negative control group was treated in the same manner as the test group, with the exception that the peptide of Example 1 was not administered. […] The weight of the mouse was measured two times a week, and an autopsy was performed on the 21st day after the injection of cancer cells. The lung tissue was excised, stained with a Bouin's solution, and fixed, and then the number of metastatic tumor nodules was counted. […]
The anticancer effect of the peptide of Example 1 was evaluated experimentally. Specifically, in order to evaluate the effect of the peptide of Example 1 on surviving individuals suffering from cancer, the survival rate was measured using an animal model prepared in the same manner as in Example 3. […]

[4] = test system: B16-BL6 mouse melanoma cells; assay: Survival rate in animal model with B16-BL6 melanoma cells; type: in vivo, male C57BL/6J mice; conditions: FIG. 4
Description: The anticancer effect of the peptide of Example 1 was evaluated experimentally. Specifically, in order to evaluate the effect of the peptide of Example 1 on surviving individuals suffering from cancer, the survival rate was measured using an animal model with B16-BL6 mouse melanoma cells (Korean Cell Line Bank, Korea).
B16-BL6 cells {1×10^5 cells/head} were subcutaneously injected into 7-week-old male C57BL/6J mice (Orientbio Inc., Korea). After one week, the peptide of Example 1 was intraperitoneally administered. The test group was divided into three groups according to the administration concentration; low concentration {40, ttg/head}, middle concentration {80, ttg/head}, and high concentration {120, ttg/head}. The negative control group was treated in the same manner as the test group, with the exception that the peptide of Example 1 was not administered. The administration was repeated two times a week for two weeks from the first administration day and then once a week for an additional four weeks, and the peptide was administered a total of eight times. To measure the survival rate, the survival rate for each group was observed and recorded. In the graph of FIG. 4, showing the survival rate, the x-axis represents the number of days since injection of the cancer cells, and the y-axis represents the survival rate (%). […]

[5] = low, middle and high concentration groups compared

In the case of QLHLD [Example 1], the “invasion of cancer cells (number of invading cells)” value [1] was “inhibited in a concentration-dependent manner”, the “number of tumor nodules (lung)” value ([2]; high concentration (120 ug/head)) was “significantly (P<0.001) reduced” and the “inhibitory effect of cancer metastasis, comparison among dose groups” value [2, 5] was “highest in the test group in which the peptide was administered at the middle concentration”. For the same substance, the “number of tumor nodules (lung)” value ([2]; middle concentration [80/2 g/head]) was “significantly (P<0.001) reduced”, the “survival rate, comparison among dose groups” value [3, 5] was “highest in the test group in which the peptide was administered at the middle concentration” and the survival rate ([3]; middle and high concentrations, caudal vein, vs negative control) was “some individuals survived even after the death of the negative control group”. The “survival rate, comparison among dose groups” value [4, 5] was “highest in the test group in which the peptide was administered at the middle concentration” and the survival rate ([4]; test groups (low 40, middle 80, high 120 ttg/head), intraperitoneal, eight administrations, vs negative control) was “some individuals survived even after the death of the negative control group”.
